Columns and labels:
Botrytis cinerea [1] = assay: Eggplant grey mold; format: in vivo; parameters: scale not given here; settings: inoculated 24 h later, rated after 3-4 days; for Disease Control Rating at 500 ppm: eggplant sprayed with 500 ppm; for Disease Control Rating at 20 ppm: eggplant sprayed with 20 ppm; for Disease Control Rating at 100 ppm: eggplant sprayed with 100 ppm
Method in brief: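 Protective test: compound formulations (2:3 acetone:water, 0.5% Tween 20; 500, 100 or 20 ppm) sprayed on 14-18-day-old plants, with spore inoculum (4×10^6 spore/mL) applied a day later. Disease control rated on Botrytis lesions after 3-4 days at 23 °C and 100% humidity.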

Botrytis cinerea [2] = assay: Vine grey mold (grape berries); format: in vivo; settings: average of six berries, 7-10 days; for pest or weed control at 50 ppm: grape berries treated with 50 ppm, read-out: % DISEASE CONTROL 50 ppm; for pest or weed control at 200 ppm: grape berries treated with 200 ppm, read-out: % DISEASE CONTROL 200 ppm
Method in brief: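 Preventive berry test: compound at 50 or 200 ppm (acetone/water, 0.05% Tween 20) applied one day before inoculation with 10^6 spores/mL Botrytis conidia. After 7-10 days at 20 °C under 12 h light, infected surface area rated; disease control expressed as percent reduction from control mean; repeated-test values averaged.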

succinate dehydrogenase = molecular target: T1, succinate dehydrogenase (Botrytis cinerea, UniProt A0A384J5E4+A0A384J8V8+A0A384JHJ5); assay: Enzyme inhibition: succinate dehydrogenase activity in Botrytis cinerea mitochondria (DCPIP reduction); format: biochemical; settings: concentration required to inhibit the rate of DCPIP reduction by 50%; Botrytis cinerea isolate Nick mitochondria; read-out: I50 (μM conc.)
T1 construct: succinate-DCPIP reductase assay with KCN
Method in brief: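 Crude mitochondria from Botrytis cinerea isolate Nick mycelia, prepared by bead-beating and differential centrifugation, started reactions. SDH activity followed as DCPIP reduction at 600 nm in 50 mM K-phosphate pH 7.2 with 1 mM KCN, 45 μM DCPIP, 17 mM succinate, 1% acetone. I50 from semilog inhibition plots, corrected for succinate-free rates.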

Rhizoctonia solani = assay: Rice sheath blight; format: in vivo; parameters: scale not given here; settings: inoculated two days later, rated after 7 days, average of five plants; for Disease Control Rating at 0.02 mg/mL: foliage and soil sprayed with 0.02 mg/mL; for Disease Control Rating at 0.1 mg/mL: foliage and soil sprayed with 0.1 mg/mL; for Disease Control Rating at 0.5 mg/mL: foliage and soil sprayed with 0.5 mg/mL
Method in brief: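 Rice plants 11–15 days old had foliage and soil sprayed with 0.5, 0.1 or 0.02 mg/mL Compound A in water/acetone/Tween 20, then kept in flooded trays. Two days later, rice-grain Rhizoctonia solani inoculum went to plant bases; disease control scored versus untreated after 7 days at 25 °C, high humidity, averaging five plants.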

T1 sequence (A0A384J5E4 1-300): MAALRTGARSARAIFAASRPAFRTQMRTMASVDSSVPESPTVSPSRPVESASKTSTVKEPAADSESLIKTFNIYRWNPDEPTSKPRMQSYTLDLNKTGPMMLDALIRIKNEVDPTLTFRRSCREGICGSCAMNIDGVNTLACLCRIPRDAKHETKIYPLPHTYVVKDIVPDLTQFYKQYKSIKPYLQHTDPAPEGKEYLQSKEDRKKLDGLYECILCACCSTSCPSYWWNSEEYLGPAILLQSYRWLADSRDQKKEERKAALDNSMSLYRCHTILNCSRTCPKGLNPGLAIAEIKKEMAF
T1 sequence (A0A384J8V8 1-189): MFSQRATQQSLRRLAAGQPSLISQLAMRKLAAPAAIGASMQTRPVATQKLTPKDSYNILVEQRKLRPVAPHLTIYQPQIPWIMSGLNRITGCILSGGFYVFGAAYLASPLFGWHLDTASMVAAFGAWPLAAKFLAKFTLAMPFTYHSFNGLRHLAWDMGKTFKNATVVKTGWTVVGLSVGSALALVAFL
T1 sequence (A0A384JHJ5 1-192): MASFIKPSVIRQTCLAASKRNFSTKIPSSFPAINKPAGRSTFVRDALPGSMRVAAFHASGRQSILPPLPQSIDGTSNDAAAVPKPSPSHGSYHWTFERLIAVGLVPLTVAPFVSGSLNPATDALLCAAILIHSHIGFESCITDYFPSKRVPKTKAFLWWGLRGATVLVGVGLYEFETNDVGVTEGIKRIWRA
T1 sequence (A0A384K456 1-647 partner): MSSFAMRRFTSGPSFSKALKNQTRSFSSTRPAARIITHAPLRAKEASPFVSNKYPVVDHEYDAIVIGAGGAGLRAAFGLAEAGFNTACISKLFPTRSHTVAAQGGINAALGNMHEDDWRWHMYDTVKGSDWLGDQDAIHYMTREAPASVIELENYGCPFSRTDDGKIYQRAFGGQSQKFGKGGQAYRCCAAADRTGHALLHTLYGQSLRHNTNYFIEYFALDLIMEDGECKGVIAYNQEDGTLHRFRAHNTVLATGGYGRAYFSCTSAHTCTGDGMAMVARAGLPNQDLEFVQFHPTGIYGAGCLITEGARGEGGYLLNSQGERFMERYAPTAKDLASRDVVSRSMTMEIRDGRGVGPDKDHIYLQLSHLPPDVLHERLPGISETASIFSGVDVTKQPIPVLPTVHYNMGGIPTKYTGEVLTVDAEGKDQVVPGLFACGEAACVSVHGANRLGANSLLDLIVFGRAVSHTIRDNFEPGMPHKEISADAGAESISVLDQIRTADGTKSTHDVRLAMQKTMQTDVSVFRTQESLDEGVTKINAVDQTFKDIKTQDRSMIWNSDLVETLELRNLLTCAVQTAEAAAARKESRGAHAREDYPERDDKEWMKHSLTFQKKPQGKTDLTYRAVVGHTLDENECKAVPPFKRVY

Row | SMILES | Disease Control Rating at 500 ppm (Botrytis cinerea [1]) | pest or weed control at 50 ppm (Botrytis cinerea [2]) | pest or weed control at 200 ppm (Botrytis cinerea [2]) | IC50 (succinate dehydrogenase) | Disease Control Rating at 0.02 mg/mL (Rhizoctonia solani) | Disease Control Rating at 0.1 mg/mL (Rhizoctonia solani) | Disease Control Rating at 0.5 mg/mL (Rhizoctonia solani) | Disease Control Rating at 20 ppm (Botrytis cinerea [1]) | Disease Control Rating at 100 ppm (Botrytis cinerea [1])
1 | Cc1nn(C)c(Cl)c1C(=O)Nc1ccccc1C1CCCCCC1 [Example 107, 1H-pyrazole-4-carboxamide, 5-chloro-N-(2-cycloheptylphenyl)-1,3-dimethyl-] | 0 | 27% | 49% | 0.055 µM | 1 | 3 | 3 | – | –
2 | Cn1cc(C(=O)Nc2ccccc2C=C2CCCC2)c(C(F)F)n1 [Example 118, 1H-pyrazole-4-carboxamide, N-[2-(cyclopentylidenemethyl)phenyl]3-(difluoromethyl)-1-methyl-] | 0 | 37% | 87% | 0.029 µM | – | – | 1 | – | –
3 | Cn1nc(C(F)F)c(C(=O)Nc2ccccc2C2CCCCCC2)c1Cl [Example 114, 1H-pyrazole-4-carboxamide, 5-chloro-N-(2-cycloheptylphenyl)-3-(difluoromethyl)-1-methyl-] | 2 | 78% | 90% | 0.0036 µM | 3 | 3 | 3 | 0 | 1
4 | Cn1cc(C(=O)Nc2ccccc2C2CCCCC2)c(Cl)n1 [Example 50, 1H-pyrazole-4-carboxamide, 3-chloro-N-(2-cyclohexylphenyl)-1-methyl-] | 0 | 8% | 22% | 0.098 µM | 0 | 0 | 2 | – | –
5 | Cn1cc(C(=O)Nc2ccccc2O[C@@H]2C[C@H]3CC[C@@H]2C3)c(C(F)(F)F)n1 (relative stereo) [Example 81] | 0 | 0% | 7% | 0.38 µM | 3 | 3 | 3 | – | –
6 | Cn1nc(C(F)(F)F)c(C(=O)Nc2ccccc2C2CCCCC2)c1Cl [Example 87, 1H-pyrazole-4-carboxamide, 5-chloro-N-(2-cyclohexylphenyl)-1-methyl-3-(trifluoromethyl)-] | 0 | 61% | 46% | 0.059 µM | – | – | 2 | – | –
7 | Cn1cc(C(=O)Nc2ccccc2CC2CCCCC2)c(C(F)F)n1 [Example 129, 1H-pyrazole-4-carboxamide, N-[2-(cyclohexylmethyl)phenyl]-3-(difluoromethyl)-1-methyl-] | 0 | 7% | 0% | 0.11 µM | 3 | 3 | 3 | 0 | 0
8 | Cn1cc(C(=O)Nc2ccccc2C2CCCCCC2)c(Cl)n1 [Example 51, 1H-pyrazole-4-carboxamide, 3-chloro-N-(2-cycloheptylphenyl)-1-methyl-] | 0 | 16% | 27% | 0.023 µM | 0 | 1 | 2 | – | –
9 | Cn1cc(C(=O)Nc2ccccc2C2CCCCCC2)c(I)n1 [Example 57, 1H-pyrazole-4-carboxamide, N-[2-(cycloheptyl)phenyl]-3-iodo-1-methyl-] | 0 | 53% | 72% | 0.0047 µM | – | – | 0 | – | –
10 | Cn1cc(C(=O)Nc2ccccc2C2CCCC2)c(C(F)(F)Cl)n1 [Example 90, 1H-pyrazole-4-carboxamide, 3-(chlorodifluoromethyl)-N-(2-cyclopentylphenyl)-1-methyl-] | 0 | 0% | 33% | 0.79 µM | – | – | 0 | 0 | 0
11 | Cn1cc(C(=O)Nc2ccccc2[C@@H]2C[C@H]3CC[C@@H]2C3)c(Br)n1 (relative stereo) [Example 65, 1H-pyrazole-4-carboxamide, N-(2-bicyclo[2.2.1]hept-2-ylphenyl)-3-bromo-1-methyl-, exo-] | 2 | 47% | 85% | 0.011 µM | 2 | 3 | 3 | 0 | 1
12 | Cn1cc(C(=O)Nc2ccccc2OCC2CCC2)c(C(F)F)n1 [Example 42, 1H-pyrazole-4-carboxamide, N-[2-(cyclobutylmethoxy)phenyl]-3-(difluoromethyl)-1-methyl-] | 0 | 0% | 25% | 0.2 µM | 2 | 3 | 3 | – | –
13 | Cn1cc(C(=O)Nc2ccccc2C2=CCCCCC2)c(C(F)(F)F)n1 [Example 112, 1H-pyrazole-4-carboxamide, N-[2-(1-cyclohepten-1-yl)phenyl]-1-methyl-3-(trifluoromethyl)-] | 3 | 88% | 95% | 0.0021 µM | – | – | 0 | 2 | 3
14 | Cn1cc(C(=O)Nc2ccccc2C2CCCCCCC2)c(C(F)F)n1 [Example 24, 1H-pyrazole-4-carboxamide, N-(2-cyclooctylphenyl)-3-(difluoromethyl)-1-methyl-] | 2 | 87% | 100% | 0.0012 µM | 3 | 3 | 3 | 1 | 2
15 | CC(C)C1CCCC=C1c1ccccc1NC(=O)c1cn(C)nc1C(F)(F)F (stereo not drawn) [Example 131, 1H-pyrazole-4-carboxamide, 1-methyl-N-[2-[6-(1-methylethyl)-1-cyclohexen-1-yl]phenyl]-3-(trifluoromethyl)-] | 0 | 7% | 0% | 0.19 µM | – | – | 2 | 0 | 0
16 | COc1ccc(C2CCCCCCC2)c(NC(=O)c2cn(C)nc2C(F)(F)F)c1 [Example 38, 1H-pyrazole-4-carboxamide, N-(2-cyclooctyl-5-methoxyphenyl)-1-methyl-3-(trifluoromethyl)-] | 2 | 0% | 14% | 0.014 µM | 0 | 0 | 1 | 0 | 2
17 | Cn1cc(C(=O)Nc2ccccc2[C@@H]2C[C@H]3CC[C@@H]2C3)c(I)n1 (relative stereo) [Example 58, 1H-pyrazole-4-carboxamide, N-(2-bicyclo[2.2.1]hept-2-ylphenyl)-3-iodo-1-methyl-, exo-] | 2 | 51% | 78% | 0.0086 µM | – | – | 2 | 0 | 0
18 | Cn1cc(C(=O)Nc2ccccc2C2=CCCCC2)c(C(F)(F)F)n1 [Example 110, 1H-pyrazole-4-carboxamide, N-[2-(1-cyclohexen-1-yl)phenyl]-1-methyl-3-(trifluoromethyl)-] | 2 | 97% | 100% | 0.019 µM | 0 | 0 | 3 | 1 | 2

Source: US5223526A, “Pyrazole carboxanilide fungicides and use” (Monsanto Company, priority 1992, dated 1993)
